Drawing on BindingDB's records for doi:10.1016/j.bmc.2004.09.056 (Pfizer, 2005), this text covers IC50 for eight molecules.

Structures are written as SMILES. Some results are limits rather than exact numbers.

Broadly, the IC50 is the concentration that gives 50% inhibition. A higher IC50 goes with a need for much substance.

The target in the assay is T1, Renin (Homo sapiens, UniProt P00797).
T1 sequence (P00797 whole entry): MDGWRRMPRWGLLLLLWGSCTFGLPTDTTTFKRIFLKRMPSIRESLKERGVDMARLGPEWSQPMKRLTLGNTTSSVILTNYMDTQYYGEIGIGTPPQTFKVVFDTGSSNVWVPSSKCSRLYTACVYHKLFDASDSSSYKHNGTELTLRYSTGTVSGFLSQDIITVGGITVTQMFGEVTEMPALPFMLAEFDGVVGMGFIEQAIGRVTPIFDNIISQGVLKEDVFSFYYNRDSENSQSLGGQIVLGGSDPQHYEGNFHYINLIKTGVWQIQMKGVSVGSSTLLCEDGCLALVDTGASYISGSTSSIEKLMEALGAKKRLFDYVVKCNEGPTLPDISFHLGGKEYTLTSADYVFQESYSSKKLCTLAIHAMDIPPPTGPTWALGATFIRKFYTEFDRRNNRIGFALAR
The experiment in a line: In Vitro Renin IC50 Determinations (Tandem GFP FRET Assay). To be noted: pH 7.4; 22 °C. The text has this:
The renin assay utilized a tandem Green Flourescent Protein (tGFP) substrate that was hydrolyzed by human rennin. The tGFP substrate contained a nine amino acid (Ile-His-Pro-Phe-His-Leu-Val-Ile-His) recognition sequence for human renin flanked by two GPF proteins (W1B and Topaz). Human rennin cleaves the leucine-valine site of the substrate linker. Once cleaved, the emission ratio changes. The change was monitored by the ratio of 530 nm (topaz) over 475 nm (W1B) with the excitation set at 432 nm and the cutoff at 515 nm. The assay used a 384 well plate format that was read using a Gemini XS Fluorometric plate reader (Molecular Devices). Compounds were screened at a starting concentration of 10 uM and used a fourfold eleven-point dilution regiment.

Consider `COc1ccccc1COCCCOc1ccc([C@H]2CCNC[C@H]2NCc2ccc3[nH]ccc3c2)cc1` (mixture of isomers) [(3S,4R)-N-(1H-indol-5-ylmethyl)-4-(4-{3-[(2-methoxyphenyl)methoxy]propoxy}phenyl)piperidin-3-amine], for which the IC50 came to 2280 nM.

The molecule `COc1ccc2cc(CN[C@@H]3CNCC[C@@H]3c3ccc(OCCCOCc4ccccc4OC)cc3)ccc2c1` (mixture of isomers) [(3S,4R)-N-[(6-methoxynaphthalen-2-yl)methyl]-4-(4-{3-[(2-methoxyphenyl)methoxy]propoxy}phenyl)piperidin-3-amine] registered an IC50 of 73 nM. In the case of `COc1ccccc1COCCCOc1ccc([C@H]2CCNC[C@H]2NC(=O)c2ccc3ccccc3c2)cc1` (mixture of isomers) [mixture of cis isomers], the IC50 is more than 10000 nM. In turn, `COc1ccccc1COCCCOc1ccc([C@H]2CCNC[C@H]2NCc2ccc(-c3ccccc3)cc2)cc1` (mixture of isomers) [mixture of cis isomers] showed an IC50 of more than 10000 nM. Molecule `COc1ccccc1COCCCOc1ccc([C@H]2CCNC[C@H]2NCc2ccc3cccnc3c2)cc1` (mixture of isomers) [mixture of cis isomers] registered an IC50 of 175 nM. That is a sub-micromolar value. Turning to `COc1ccccc1COCCCOc1ccc([C@H]2CCNC[C@H]2NCc2ccc3occc3c2)cc1` (mixture of isomers) [mixture of cis isomers], the IC50 was found to be 393 nM. The molecule `COc1ccccc1COCCCOc1ccc([C@H]2CCNC[C@H]2NCc2ccc3ccccc3c2)cc1` [(3S,4R)-4-(4-{3-[(2-methoxyphenyl)methoxy]propoxy}phenyl)-N-(naphthalen-2-ylmethyl)piperidin-3-amine] had an IC50 of 61 nM. Regarding `COc1ccccc1COCCCOc1ccc([C@H]2CCNC[C@H]2NCc2ccc3c(c2)NCCC3)cc1` [mixture of cis isomers], the half-inhibitory concentration (IC50) turned out to be 255 nM.
